Some results are limits rather than exact numbers.

The values that follow come from ChEMBL document CHEMBL3352146, “Cytotoxic aaptamine derivatives from the South China Sea sponge Aaptos aaptos” (J Nat Prod, 2014).

One test concerns K562. Nature of the test: Cytotoxicity against human K562 cells after 48 hrs by trypan blue exclusion method. The format is functional, cell-based. The settings on record: K562, 48 h.
The next test concerns HT-29. As to the kind of experiment: Cytotoxicity against human HT-29 cells after 72 hrs by methylene blue assay. As to conditions: HT-29, 72 h.
The test system of the next test is KB. As to the kind of experiment: Cytotoxicity against human KB cells after 72 hrs by methylene blue assay.
The next test has as its system MCF7. As to the kind of experiment: Cytotoxicity against human MCF7 cells after 72 hrs by methylene blue assay. As to conditions: MCF7, 72 h.
Another test concerns HepG2. As to the kind of experiment: Cytotoxicity against human HepG2 cells after 72 hrs by methylene blue assay. As to conditions: HepG2, 72 h.
Test [1] can be described thus: Cytotoxicity against human HL60 cells after 48 hrs by trypan blue exclusion method. It counts as functional, cell-based. As to conditions: HL-60, 48 h.

Take `COC1=Cc2ccnc3c(NCCC(C)C)cnc(c23)C1=O`: the IC50 in the test with K562 was determined as 90 nM; with HT-29, 1800 nM; in the test on KB, 110 nM; in the test with MCF7, 440 nM; in the test with HepG2, 170 nM; in test [1], 30 nM.
As for `CCOC1=Nc2c(N)c(OC)cc3ccnc(c23)C1=O`, the IC50 in the test on K562 amounted to 220 nM; with HT-29, 6600 nM; with KB it was 660 nM; with MCF7, 1200 nM; with HepG2, 600 nM; in test [1], 110 nM.
As to `COC1=Cc2ccnc3c(NCCc4ccccc4)cnc(c23)C1=O`, the IC50 in the test on K562 came out at 90 nM; in the test with HT-29, 2200 nM; in the test with KB, 120 nM; in the test with MCF7, 400 nM; in the test with HepG2, 200 nM; in test [1], 30 nM.
With `COc1cc2ccn3c(CC(C)C)nc4c(=O)[nH]c(c1OC)c2c43`, the IC50 (in the test on K562; in the test on HT-29; in the test with KB; in the test on MCF7; in the test with HepG2; in test [1]) was over 10 µg/mL throughout.
Turning to `COC1=Cc2ccnc3c(NCC(C)C)cnc(c23)C1=O`, the IC50 stood at 460 nM with K562; 8500 nM with HT-29; 1100 nM in the test on KB; 2300 nM with MCF7; 1000 nM in the test with HepG2; 280 nM in test [1].
`CNc1cnc2c3c(ccnc13)C=C(OC)C2=O`: the IC50 (with K562; in the test on HT-29; in the test on KB; in the test with MCF7; with HepG2; in test [1]) was over 10 µg/mL in each case.
`CC(=O)O[C@H]1C(=O)[C@@]2(C)[C@H]([C@H](OC(=O)c3ccccc3)[C@]3(O)C[C@H](OC(=O)[C@H](O)[C@@H](NC(=O)c4ccccc4)c4ccccc4)C(C)=C1C3(C)C)[C@]1(OC(C)=O)CO[C@@H]1C[C@@H]2O` [PACLITAXEL]: the IC50 with K562 was found to be 2.4 nM; in the test on HT-29, 3.5 nM; in the test on MCF7 it was 3.2 nM; in the test on HepG2, 2.7 nM; in test [1], 1.5 nM.
With `CCC(C)CNc1cnc2c3c(ccnc13)C=C(OC)C2=O` (configuration not stated), the IC50 (in the test with K562; in the test on HT-29; in the test on KB; in the test with MCF7; in the test on HepG2; in test [1]) was over 10 µg/mL throughout.
Take `COc1cc2ccn3c(C(C)C)nc4c(=O)[nH]c(c1OC)c2c43`: the IC50 (in the test on K562; in the test with HT-29; in the test with KB; in the test with MCF7; in the test with HepG2; in test [1]) was over 10 µg/mL each time.
Consider `COC1=Cc2ccnc3c4c(nc(c23)C1=O)CCCN4`, for which the IC50 (in the test with K562; in the test with HT-29; in the test with KB; in the test with MCF7; in the test on HepG2; in test [1]) was over 10 µg/mL in each case.
With `CCOc1nc2c(=O)[nH]c3c(OC)c(OC)cc4ccn1c2c43`, the IC50 (in the test on K562; in the test on HT-29; with KB; in the test with MCF7; in the test with HepG2; in test [1]) was over 10 µg/mL throughout.
In the case of `CCC(C)c1nc2c(=O)[nH]c3c(OC)c(OC)cc4ccn1c2c43` (configuration not stated), the IC50 (in the test with K562; with HT-29; with KB; in the test on MCF7; in the test with HepG2; in test [1]) was over 10 µg/mL in each case.
For the compound `CCOC(=O)CCCNc1cnc2c3c(ccnc13)C=C(OC)C2=O`, the IC50 (with K562; in the test with HT-29; in the test on KB; with MCF7; in the test with HepG2; in test [1]) was over 10 µg/mL each time.
